Drawing on ChEMBL document CHEMBL5465560, “Selectivity Literature for EUbOPEN Chemogenomic Library” (2024), this text covers % of control, % of inhibition and % of engagement for eight compounds.

Assay [1] concerns the target Tyrosine-protein kinase FRK (Homo sapiens) (UniProt P42685). Put plainly: Selectivity interaction (Kinase panel (Z-LYTE Assay)) EUB0001632a FRK. To be noted: at 10 µM.
The target of assay [2] is MAP/microtubule affinity-regulating kinase 3 (Homo sapiens) (UniProt P27448). The assay is described as follows: Selectivity interaction (KinomeScan (DiscoverX)) EUB0000595a MARK3. The following applies: at 10 µM.
Chain of MAP/microtubule affinity-regulating kinase 3 (Homo sapiens) (P27448 whole entry, looked up, the tested form may be a part): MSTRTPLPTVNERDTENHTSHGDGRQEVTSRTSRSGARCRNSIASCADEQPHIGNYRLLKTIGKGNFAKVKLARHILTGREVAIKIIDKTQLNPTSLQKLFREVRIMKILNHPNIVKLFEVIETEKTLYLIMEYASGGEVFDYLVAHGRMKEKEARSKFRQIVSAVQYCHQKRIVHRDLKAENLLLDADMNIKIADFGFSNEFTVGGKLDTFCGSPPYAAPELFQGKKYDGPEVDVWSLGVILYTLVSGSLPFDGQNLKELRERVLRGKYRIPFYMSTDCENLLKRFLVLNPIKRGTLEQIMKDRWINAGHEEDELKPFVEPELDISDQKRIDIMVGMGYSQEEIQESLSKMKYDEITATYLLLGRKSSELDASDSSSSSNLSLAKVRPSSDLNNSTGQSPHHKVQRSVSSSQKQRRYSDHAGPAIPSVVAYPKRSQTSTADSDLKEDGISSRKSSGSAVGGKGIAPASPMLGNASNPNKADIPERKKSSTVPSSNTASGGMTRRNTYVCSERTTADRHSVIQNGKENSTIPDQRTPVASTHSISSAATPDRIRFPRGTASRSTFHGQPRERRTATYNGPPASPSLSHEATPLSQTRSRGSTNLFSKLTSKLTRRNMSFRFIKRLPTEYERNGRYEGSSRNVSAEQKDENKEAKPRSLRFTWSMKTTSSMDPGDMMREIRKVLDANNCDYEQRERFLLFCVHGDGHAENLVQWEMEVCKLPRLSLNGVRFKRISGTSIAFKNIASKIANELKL
Assay [3] deals with T1, Mixed lineage kinase domain-like protein (Homo sapiens) (UniProt Q8NB16).
T1 sequence (whole entry): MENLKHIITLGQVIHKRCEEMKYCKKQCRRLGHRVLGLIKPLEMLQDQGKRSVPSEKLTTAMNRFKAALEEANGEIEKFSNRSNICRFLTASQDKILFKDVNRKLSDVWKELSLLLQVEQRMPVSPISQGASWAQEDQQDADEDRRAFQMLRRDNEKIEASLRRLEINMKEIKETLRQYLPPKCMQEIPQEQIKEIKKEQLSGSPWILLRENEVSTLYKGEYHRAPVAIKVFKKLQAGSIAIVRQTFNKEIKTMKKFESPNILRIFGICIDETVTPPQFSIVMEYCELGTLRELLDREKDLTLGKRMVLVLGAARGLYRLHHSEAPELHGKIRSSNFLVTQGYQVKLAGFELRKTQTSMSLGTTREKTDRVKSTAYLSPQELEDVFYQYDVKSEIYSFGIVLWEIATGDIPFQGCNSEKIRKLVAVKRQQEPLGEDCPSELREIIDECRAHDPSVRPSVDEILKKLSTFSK
Put plainly: Selectivity interaction (ActivX KiNativ screen (ex vivo kinase selectivity in human PBMCs)) EUB0001619a MLKL. It counts as cell-based. The following applies: PBMC, at 1 µM.

For assay [4], the target named is Vascular endothelial growth factor receptor 1 (Homo sapiens) (UniProt P17948). To be noted: at 10 µM.
Chain of Vascular endothelial growth factor receptor 1 (Homo sapiens) (P17948 whole entry): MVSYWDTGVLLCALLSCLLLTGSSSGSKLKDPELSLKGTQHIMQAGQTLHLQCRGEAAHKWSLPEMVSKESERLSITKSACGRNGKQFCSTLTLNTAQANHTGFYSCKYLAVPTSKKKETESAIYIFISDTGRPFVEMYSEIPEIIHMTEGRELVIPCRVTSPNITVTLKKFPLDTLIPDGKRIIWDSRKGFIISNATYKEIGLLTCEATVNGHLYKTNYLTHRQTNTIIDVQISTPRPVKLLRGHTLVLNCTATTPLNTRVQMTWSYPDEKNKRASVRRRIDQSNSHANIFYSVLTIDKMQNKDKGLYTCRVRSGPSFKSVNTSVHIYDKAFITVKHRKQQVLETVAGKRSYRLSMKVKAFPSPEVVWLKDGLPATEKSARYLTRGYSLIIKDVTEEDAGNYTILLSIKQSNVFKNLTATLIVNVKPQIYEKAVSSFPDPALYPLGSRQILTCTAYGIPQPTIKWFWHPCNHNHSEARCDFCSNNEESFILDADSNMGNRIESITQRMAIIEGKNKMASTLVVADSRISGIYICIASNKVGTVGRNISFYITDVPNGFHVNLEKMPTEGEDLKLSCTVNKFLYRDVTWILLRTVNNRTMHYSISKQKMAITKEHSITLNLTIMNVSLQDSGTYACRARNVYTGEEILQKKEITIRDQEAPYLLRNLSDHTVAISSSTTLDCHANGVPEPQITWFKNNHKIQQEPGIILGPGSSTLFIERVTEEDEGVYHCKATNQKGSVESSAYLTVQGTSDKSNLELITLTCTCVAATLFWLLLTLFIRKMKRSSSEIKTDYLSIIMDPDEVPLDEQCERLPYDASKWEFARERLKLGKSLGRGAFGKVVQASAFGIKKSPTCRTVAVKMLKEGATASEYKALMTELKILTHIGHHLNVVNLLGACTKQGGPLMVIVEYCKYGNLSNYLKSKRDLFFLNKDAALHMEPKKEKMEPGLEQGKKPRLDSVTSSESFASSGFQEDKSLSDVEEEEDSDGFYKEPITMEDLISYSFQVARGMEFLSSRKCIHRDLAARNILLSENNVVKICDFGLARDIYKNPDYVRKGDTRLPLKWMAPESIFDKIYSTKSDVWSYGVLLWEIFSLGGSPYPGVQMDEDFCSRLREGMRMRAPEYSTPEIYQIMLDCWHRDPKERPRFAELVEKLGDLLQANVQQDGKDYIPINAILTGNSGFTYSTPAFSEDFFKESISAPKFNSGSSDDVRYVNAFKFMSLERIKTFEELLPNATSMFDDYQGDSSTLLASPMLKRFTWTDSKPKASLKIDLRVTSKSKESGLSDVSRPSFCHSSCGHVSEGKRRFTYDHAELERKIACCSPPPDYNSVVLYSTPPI
The target of assay [5] is T2, Tyrosine-protein kinase ITK/TSK (Homo sapiens) (UniProt Q08881).
T2 sequence (whole entry): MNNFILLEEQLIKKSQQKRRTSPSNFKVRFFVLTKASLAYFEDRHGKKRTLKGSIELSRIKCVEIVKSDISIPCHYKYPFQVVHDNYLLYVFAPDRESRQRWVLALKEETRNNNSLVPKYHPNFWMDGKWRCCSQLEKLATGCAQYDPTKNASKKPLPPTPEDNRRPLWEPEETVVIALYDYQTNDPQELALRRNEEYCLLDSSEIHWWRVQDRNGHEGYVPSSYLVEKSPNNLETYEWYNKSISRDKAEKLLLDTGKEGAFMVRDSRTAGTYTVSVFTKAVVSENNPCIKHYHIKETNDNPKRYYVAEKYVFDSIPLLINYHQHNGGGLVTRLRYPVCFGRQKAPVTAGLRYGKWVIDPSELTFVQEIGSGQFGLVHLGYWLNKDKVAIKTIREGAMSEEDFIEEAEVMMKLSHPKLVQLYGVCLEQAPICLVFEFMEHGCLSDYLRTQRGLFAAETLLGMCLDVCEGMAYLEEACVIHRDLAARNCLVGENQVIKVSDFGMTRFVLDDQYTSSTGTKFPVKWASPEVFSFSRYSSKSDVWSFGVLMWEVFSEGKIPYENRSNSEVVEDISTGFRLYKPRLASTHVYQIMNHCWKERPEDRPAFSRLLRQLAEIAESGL
Put plainly: Selectivity interaction (ProQinase) EUB0000171b ITK.

Assay [6] deals with T3, Serine/threonine-protein kinase DCLK1 (Homo sapiens) (UniProt O15075).
T3 sequence (whole entry): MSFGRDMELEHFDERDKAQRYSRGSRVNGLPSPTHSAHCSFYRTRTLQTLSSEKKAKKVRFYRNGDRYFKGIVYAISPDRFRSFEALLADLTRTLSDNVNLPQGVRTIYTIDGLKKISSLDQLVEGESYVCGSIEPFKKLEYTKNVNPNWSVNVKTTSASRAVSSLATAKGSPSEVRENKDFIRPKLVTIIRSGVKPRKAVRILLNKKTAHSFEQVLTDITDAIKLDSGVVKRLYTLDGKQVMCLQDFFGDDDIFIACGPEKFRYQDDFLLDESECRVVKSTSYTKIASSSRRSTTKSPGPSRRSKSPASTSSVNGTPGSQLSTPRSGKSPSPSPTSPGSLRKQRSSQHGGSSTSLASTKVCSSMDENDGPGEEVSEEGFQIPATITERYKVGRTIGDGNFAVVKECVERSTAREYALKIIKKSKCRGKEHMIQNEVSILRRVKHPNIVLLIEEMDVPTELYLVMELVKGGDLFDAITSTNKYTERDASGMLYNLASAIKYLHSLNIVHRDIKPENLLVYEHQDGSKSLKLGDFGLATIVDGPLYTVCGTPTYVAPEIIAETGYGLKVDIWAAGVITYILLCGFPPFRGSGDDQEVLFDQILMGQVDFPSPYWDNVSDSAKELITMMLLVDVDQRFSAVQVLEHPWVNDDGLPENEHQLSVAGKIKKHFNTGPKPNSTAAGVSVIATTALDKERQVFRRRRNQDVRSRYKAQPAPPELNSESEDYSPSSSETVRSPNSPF
The assay is described as follows: Selectivity interaction (KinomeScan (DiscoverX)) EUB0000618a DCLK1. To be noted: at 10 µM.

In assay [7] the target is Serine/threonine-protein kinase 24 (Homo sapiens) (UniProt Q9Y6E0). The assay is described as follows: Selectivity interaction (KinomeScan (DiscoverX)) EUB0000618a STK24. The following applies: at 10 µM.
Chain of Serine/threonine-protein kinase 24 (Homo sapiens) (Q9Y6E0 whole entry, looked up): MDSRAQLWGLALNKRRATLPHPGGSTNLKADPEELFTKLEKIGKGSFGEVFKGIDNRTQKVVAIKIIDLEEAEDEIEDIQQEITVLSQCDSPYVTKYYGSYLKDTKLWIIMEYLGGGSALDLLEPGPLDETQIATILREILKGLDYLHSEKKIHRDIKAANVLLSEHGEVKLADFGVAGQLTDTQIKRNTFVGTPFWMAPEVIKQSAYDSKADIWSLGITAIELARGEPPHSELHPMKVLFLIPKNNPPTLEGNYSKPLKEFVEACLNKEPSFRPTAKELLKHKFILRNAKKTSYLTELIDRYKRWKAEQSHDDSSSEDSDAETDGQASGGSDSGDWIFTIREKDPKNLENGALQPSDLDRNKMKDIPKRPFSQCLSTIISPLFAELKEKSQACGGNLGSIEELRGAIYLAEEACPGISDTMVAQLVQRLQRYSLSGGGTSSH
In assay [8] the target is T4, TGF-beta receptor type-1 (Homo sapiens) (UniProt P36897).
T4 sequence (whole entry): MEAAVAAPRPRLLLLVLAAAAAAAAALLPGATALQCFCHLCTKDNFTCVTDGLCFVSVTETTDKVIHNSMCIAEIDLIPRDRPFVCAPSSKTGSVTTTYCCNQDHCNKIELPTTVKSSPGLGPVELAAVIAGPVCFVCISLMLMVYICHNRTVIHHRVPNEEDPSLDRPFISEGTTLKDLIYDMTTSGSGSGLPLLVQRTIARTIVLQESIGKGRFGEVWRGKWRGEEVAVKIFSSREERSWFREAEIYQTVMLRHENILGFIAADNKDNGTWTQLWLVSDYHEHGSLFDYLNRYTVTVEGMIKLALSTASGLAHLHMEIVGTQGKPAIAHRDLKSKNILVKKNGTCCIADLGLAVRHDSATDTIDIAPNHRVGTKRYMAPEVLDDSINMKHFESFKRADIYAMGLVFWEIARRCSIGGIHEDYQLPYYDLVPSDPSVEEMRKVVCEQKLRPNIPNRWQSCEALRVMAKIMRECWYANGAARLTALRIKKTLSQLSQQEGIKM
The assay is described as follows: Selectivity interaction (KinomeScan (DiscoverX)) EUB0000618a TGFBR1. The following applies: at 10 µM.

In assay [9] the target is Serine/threonine-protein kinase tousled-like 2 (Homo sapiens) (UniProt Q86UE8). Put plainly: Selectivity interaction (KinomeScan (DiscoverX)) EUB0000092b TLK2. The following applies: at 10 µM.
Chain of Serine/threonine-protein kinase tousled-like 2 (Homo sapiens) (Q86UE8 whole entry, looked up): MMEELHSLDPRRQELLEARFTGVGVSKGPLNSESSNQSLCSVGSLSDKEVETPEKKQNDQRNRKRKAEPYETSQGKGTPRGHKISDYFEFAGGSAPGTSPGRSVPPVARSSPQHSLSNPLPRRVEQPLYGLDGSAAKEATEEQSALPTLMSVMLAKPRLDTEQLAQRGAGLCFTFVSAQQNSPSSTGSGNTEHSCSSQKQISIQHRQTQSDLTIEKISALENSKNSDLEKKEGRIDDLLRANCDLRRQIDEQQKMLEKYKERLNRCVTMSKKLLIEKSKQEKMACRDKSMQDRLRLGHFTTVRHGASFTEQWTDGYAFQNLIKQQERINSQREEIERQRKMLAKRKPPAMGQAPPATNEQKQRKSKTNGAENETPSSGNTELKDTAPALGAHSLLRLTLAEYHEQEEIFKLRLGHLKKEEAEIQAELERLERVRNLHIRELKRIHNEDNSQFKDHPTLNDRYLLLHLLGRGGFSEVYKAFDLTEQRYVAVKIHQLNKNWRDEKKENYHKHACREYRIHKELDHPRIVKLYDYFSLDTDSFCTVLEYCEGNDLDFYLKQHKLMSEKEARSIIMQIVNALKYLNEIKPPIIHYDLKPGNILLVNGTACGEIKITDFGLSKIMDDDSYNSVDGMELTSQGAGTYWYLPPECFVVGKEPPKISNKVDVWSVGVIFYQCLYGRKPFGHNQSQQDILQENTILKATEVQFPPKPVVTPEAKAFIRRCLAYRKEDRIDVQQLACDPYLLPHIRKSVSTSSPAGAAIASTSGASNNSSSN
Assay [10] concerns the target Cyclin-dependent kinase 17 (Homo sapiens) (UniProt Q00537). Put plainly: Selectivity interaction (Kinase panel (KiNativ target engagement assay in Jurkat cells)) EUB0001635a CDK17. The format is cell-based. The following applies: Selectivity number of off-targets 0.0, Selectivity number of targets 233.0, Source Knowledge https://www.sciencedirect.com/science/article/pii/S2451945619300674?via%3Dihub, at 1 µM.

Chain of Tyrosine-protein kinase FRK (Homo sapiens) (P42685 whole entry): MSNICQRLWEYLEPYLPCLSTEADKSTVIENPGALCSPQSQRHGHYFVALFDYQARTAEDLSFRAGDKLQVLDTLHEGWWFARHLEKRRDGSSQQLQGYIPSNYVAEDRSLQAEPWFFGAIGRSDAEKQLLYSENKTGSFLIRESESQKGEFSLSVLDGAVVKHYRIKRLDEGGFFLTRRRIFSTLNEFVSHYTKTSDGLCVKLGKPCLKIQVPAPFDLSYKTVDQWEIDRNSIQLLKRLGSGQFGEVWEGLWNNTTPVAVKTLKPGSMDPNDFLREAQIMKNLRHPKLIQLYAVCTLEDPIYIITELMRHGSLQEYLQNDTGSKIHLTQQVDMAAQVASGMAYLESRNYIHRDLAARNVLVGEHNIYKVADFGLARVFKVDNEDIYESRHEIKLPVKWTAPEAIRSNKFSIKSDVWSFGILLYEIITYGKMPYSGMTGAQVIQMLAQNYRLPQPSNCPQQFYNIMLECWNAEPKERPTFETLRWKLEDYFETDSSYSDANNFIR
Chain of Cyclin-dependent kinase 17 (Homo sapiens) (Q00537 whole entry, looked up): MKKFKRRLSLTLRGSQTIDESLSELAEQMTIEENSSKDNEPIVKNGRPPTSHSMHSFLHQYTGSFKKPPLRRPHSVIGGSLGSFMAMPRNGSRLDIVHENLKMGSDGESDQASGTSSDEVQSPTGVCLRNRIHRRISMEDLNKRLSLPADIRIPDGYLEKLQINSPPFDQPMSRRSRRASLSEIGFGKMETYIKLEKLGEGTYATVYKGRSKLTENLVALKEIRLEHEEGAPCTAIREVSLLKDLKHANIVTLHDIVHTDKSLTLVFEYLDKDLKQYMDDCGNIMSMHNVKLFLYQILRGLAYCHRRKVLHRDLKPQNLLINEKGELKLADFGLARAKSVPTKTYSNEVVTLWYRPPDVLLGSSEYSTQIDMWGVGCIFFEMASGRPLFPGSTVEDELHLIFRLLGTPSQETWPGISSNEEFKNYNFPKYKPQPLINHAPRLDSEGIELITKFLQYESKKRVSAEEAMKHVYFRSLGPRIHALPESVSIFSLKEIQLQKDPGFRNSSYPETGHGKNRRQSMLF

In turn, `Cn1cc(-n2cnc3c(NCc4nc5cc(Cl)c(Cl)cc5[nH]4)nc(N4CCOCC4)nc32)cn1` registered a % of control in [1] of 5.87%.
In assay [2], `COCC(=O)NC/C=C/c1ccc2ncnc(Nc3ccc(Oc4ccc(C)nc4)c(C)c3)c2c1` [CP-724714] returned a % of control of 100%.
Compound `N#Cc1cccc(-c2c[nH]c3ncnc(N4CCOCC4)c23)c1` showed a % of inhibition in assay [3] of 15%.
Take `Cc1cc([C@@H](C)Nc2ccccc2C(=O)O)c2nc(N3CCOCC3)cc(=O)n2c1` [AZD-6482]: the % of control in assay [4] is 83%.
Consider `C=CC(=O)Nc1cccc(C(=O)Nc2ccc(Nc3cc(-c4[nH]c(SC)nc4C)ccn3)cc2)c1`, for which the % of control in assay [5] (at 1 µM) was 95%; in assay [5] (at 5 µM), 81%.
For `O[C@H]1CC[C@H](Nc2ncc3nc(Nc4c(F)cc(F)cc4F)n([C@H]4CCOC4)c3n2)CC1`, the % of control in assay [6] worked out at 81%; in [7], 88%; in assay [8], 100%.
Compound `CCC(=O)N1CCN(c2ccc(-n3c(=O)ccc4cnc5ccc(-c6cnc7ccccc7c6)cc5c43)cc2C(F)(F)F)CC1` had a % of control in [9] of 100%.
Take `C=CC(=O)Nc1ccc(C(=O)Nc2[nH]nc3c2CN(C(=O)N[C@H](CN(C)C)c2ccccc2)C3(C)C)cc1`: the % of engagement in assay [10] worked out at 9.3%.
